Measurements reported in US20060270614A1, “Use of chalcones for the treatment of viral disorders” (priority 2005, published 2006).
Like-named read-outs stand apart in the source and are kept apart here.

Test system: HSV-1
Test: HSV-1 assay: CPE inhibition in Vero cells, MTS dye uptake
Assay type: cell-based, herpes simplex virus-1
Settings: read-out: IC50 (inhibitory concentration at which the compound provides 50% CPE reduction)
Description: In vitro evaluation of anti-viral activity can be determined by plaque reduction as reported in J. Nat. Prod. (1990) 53, 340-344; or as described in Example 1. To pre-grown Vero cells (ATCC CCL-81 is added a virus suspension (ATCC VR-260) mixed with complete medium containing various concentrations of the test compound and the mixture is incubated until maximum cytopathic effect (CPE) is observed in the untreated virus control culture. The CPE inhibition is determined by adding a dye (MTS, (3-[4,5-dimethylthiazol-2-yl-5]-[3-carboxymethyoxyphenyl]-2-[4-sulfophenyl]-2H tetrazolium)) uptake procedure (Promega's Cell Titer Aqueous One Solution). This method measures cell viability and is based on the reduction of the tetrazolium-based MTS by mitochondrial enzymes of viable host cells to MTS formazan. The purple color of the MTS formazan is then measured spectrophotometrically. The optical density (OD) value of each culture is a function of the amount of formazan produced which is proportional to the number of viable cells.
Vero cells (ATCC CCL-81) are pregrown in 96-well tissue culture plates using Dulbecco's Modified Eagle's Medium (DMEM) supplemented with 10% heat-inactivated fetal bovine serum (FBS), L-Glutamine, penicillin, and streptomycin.
To each of the replicate cell cultures is added 50 μL of the test article solution and 50 μL of virus suspension (ATCC VR-260). The multiplicity of infection used is about 0.05 plaque-forming unit (PFU) per cell. Cell controls containing medium alone, virus-infected controls containing medium and virus, drug cytotoxicity controls containing medium and each drug concentration, reagent controls containing culture medium only (no cells), and the test article colorimetric controls containing the test article and medium (no cells) are run simultaneously with the test samples. The plates are incubated at 37° C. in a humidified atmosphere containing 5% CO2 until maximum CPE (cytopathic effect) is observed in the untreated virus control cultures (Day 5).
CPE inhibition is determined by a dye (MTS) uptake procedure (Promega's Cell Titer Aqueous One Solution). This method measures cell viability and is based on the reduction of the tetrazolium-based MTS by mitochondrial enzymes of viable host cells to MTS formazan. MTS (10 μl) is added to each of the plate wells. The plates are incubated at 37° C. for 4 hours. The purple color of the MTS formazan is then measured spectrophotometrically at 490/650 nm. The optical density (OD) value of each culture is a function of the amount of formazan produced which is proportional to the number of viable cells.
The percent of CPE (cytopathic effect) reduction of the virus-infected wells (antiviral efficacy) and the percent cell viability of uninfected drug control wells (cytotoxicity) are calculated. […]

[1] = Human alphaherpesvirus 1, 120 h, Vero cells (ATCC CCL-81), virus ATCC VR-260, about 0.05 PFU per cell, Day 5, MTS

IC50 [1] [µM] | SMILES | IC50 (Human alphaherpesvirus 1, Vero, 120 h) [µM]
26.6 | O=C(/C=C/c1ccc(O)c(O)c1)c1ccc(O)cc1O [2′,3,4,4′-Tetrahydroxychalcone] | –
– | COc1ccc(/C=C/C(=O)c2ccc(O)cc2O)cc1OC [2′,4′-Dihydroxy-3,4-dimethoxychalcone] | 8.36
11.1 | COc1ccc(/C=C/C(=O)c2ccc(O)cc2O)cc1 [2′,4′-Dihydroxy-4-methoxychalcone] | –
> 100 | O=C1/C(=C/c2ccc(O)c(O)c2)Oc2cc(O)ccc21 [(Z)-2-(3,4-Dihydroxybenzylidene)-6-hydroxybenzofuran-3(2H)-one, reference compound] | –
